Data from US9073967B2, “High salt-resistance antibacterial peptide and method for producing the same” (NATIONAL TSING HUA UNIVERSITY, priority 2011, dated 2015).
Values after ≈ are worked out from the molar mass of the structure shown. “Also recorded” adds a separate entry of the source. Where a SMILES comes first, the peptide text is derived from it. [ ]: non-standard residue; d: D form. 2Nal = N[C@@H](Cc1ccc2ccccc2c1)C(=O)O

How the values were obtained:
[1] = test system: Eschericha coli strains ATCC 25922; assay: Antibacterial activity assay, NCCLS microdilution MIC in MHB; type: cell-based
From the text: (§1) For testing the antibacterial ability of Phe-P113, Nal-P113 and Bip-P113 in different salt concentration, we use Antibacterial activity assay to perform the test. Three bacteria strains are used: Eschericha coli strains (ATCC 25922), Staphylococcus aureus strains (ATCC 25923, 29213 and 19636, methicillin-resistant) and Pseudomonas aeruginosa strains (ATCC 27853 and 9027, ampicillin-resistant).
(§2) The microdilution method of National Committee for Clinical Laboratory Standards (NCCLS) is used to evaluate ‘The minimal inhibition concentration (MIC)’. The minimum concentration that can inhibit 90% or more microbes is the ‘minimal inhibition concentration’.
(§3) In the microdilution method, the 1 μl peptide solution (The concentration is between the range of 5000 μg/ml to 78.1 μg/ml) and the 99 μl inoculums (5×10^5 CFU/ml) is mixed incubated in 96-well culture dish coated with polyethylene under 37° C. for 16 hr. Then evaluated the turbidity in O.D.600 by ELISA plate reader (Thermo Max, Molecular Devices, Sunnyvale, Calif.). Take the Muller-Hinton Broth (MHB) and inoculums suspension with adding peptides as negative and positive control group relatively. The result of MIC is the minimum concentration of peptides that can inhibit the bacteria growth (equal to or more than 90%).

[2] = test system: Pseudomonas aeruginosa strains ATCC 27853; assay: as above; type: cell-based
From the text: as §1, §2, §3

[3] = test system: Pseudomonas aeruginosa strains ATTC 9027; assay: as above; type: cell-based
From the text: as §1, §2, §3

[4] = test system: Staphylococcus aureus strains ATCC 19636; assay: as above; type: cell-based
From the text: as §1, §2, §3

[5] = test system: Staphylococcus aureus strains ATCC 25923; assay: as above; type: cell-based
From the text: as §1, §2, §3

[6] = test system: Staphylococcus aureus strains ATCC 29213; assay: as above; type: cell-based
From the text: as §1, §2, §3

[7] = test system: E. coli ATCC 25922; assay: Antibacterial ability in different MgCl2 concentration; type: cell-based
[8] = test system: S. aureus ATCC 25923; assay: as above; type: cell-based
[9] = test system: S. aureus ATCC 29213; assay: as above; type: cell-based
[10] = test system: S. aureus ATCC 19636; assay: as above; type: cell-based
[11] = test system: P. arugenosa ATCC 27853; assay: as above; type: cell-based
[12] = test system: P. arugenosa ATCC 9027; assay: as above; type: cell-based
[13] = test system: C. tropicalis ATCC 13803 YLO86
[14] = test system: E. coli ATCC 25922; assay: Antibacterial ability in different salt (NaCl) concentration, LYM medium
Description: (§4) All bacteria strains of above microbes were cultured in LYM medium. […] The NaCl concentrations in LYM were divided into four groups of 50 mM, 100 mM, 200 mM, 300 mM and the microbes were cultured in the four group of LYM and diluted to a 10^4 CFU/ml bacterial solution. Then added 100 μl of the bacterial solution into 96-well culture dish and added different concentration of antibacterial peptides P113, Phe-P113, Nal-P113 or Bip-P113 to evaluate the antibacterial ability in 50 mM, 100 mM, 200 mM, 300 mM concentration of NaCl. (Note: In addition to NaCl, the LYM medium also contains 5.4 mM KCl, 5.6 mM Na2HPO4, 0.5 mM MgSO4, and 1.0 mM sodium citrate. Besides, 0.4 mg of ZnCl2, 2.0 mg of FeCl3.6H2O, 0.1 mg of CuSO4.5H2O, 0.1 mg of MnSO4.H2O, 0.1 mg of Na2B4O7.10H2O, 700 mg of amino acid mixtures without tryptophan (Clontech), and 20 mg of L-Tryptophan were added per liter of medium. Then added moderate amount of glucose, amino acid, and vitamins mixture from the RPM1-1640 Select-Amine Kit)

[15] = test system: S. aureus ATCC 25923; assay: as above
Description: as §4

[16] = test system: S. aureus ATCC 29213; assay: as above
Description: as §4

[17] = test system: S. aureus ATCC 19636; assay: as above
Description: as §4

[18] = test system: P. arugenosa ATCC 27853; assay: as above
Description: as §4

[19] = test system: P. arugenosa ATCC 9027; assay: as above
Description: as §4

[20] = test system: Bacteria strains; assay: Antibacterial ability in different salt concentration, overall statement; details: different concentration of NaCl / salt
Description: as §4

What does the source list for `C[C@H](N)C(=O)N[C@@H](CCCCN)C(=O)N[C@@H](CCCNC(=N)N)C(=O)N[C@@H](Cc1ccc2ccccc2c1)C(=O)N[C@@H](Cc1ccc2ccccc2c1)C(=O)NCC(=O)N[C@@H](Cc1ccc(O)cc1)C(=O)N[C@@H](CCCCN)C(=O)N[C@@H](CCCNC(=N)N)C(=O)N[C@@H](CCCCN)C(=O)N[C@@H](Cc1ccccc1)C(=O)N[C@@H](Cc1ccc2ccccc2c1)C(N)=O` [Nal-P113] (H-AKR[2Nal][2Nal]GYKRKF[2Nal]-NH2; N-terminus and C-terminus assumed)?
minimal inhibition concentration (MIC) [1]: 12.5; minimal inhibition concentration (MIC) [2]: 50; minimal inhibition concentration (MIC) [3]: 50; minimal inhibition concentration (MIC) [4]: 6.25; minimal inhibition concentration (MIC) [5]: 6.25; minimal inhibition concentration (MIC) [6]: 6.25; antibacterial ability (MIC) ([7]; Control group): 3.12 µg/mL; antibacterial ability (MIC) ([7]; MgCl2 0.5 mM): 3.12 µg/mL; antibacterial ability (MIC) ([7]; MgCl2 1.5 mM): 6.25 µg/mL; antibacterial ability (MIC) ([7]; MgCl2 2.5 mM): 12.5 µg/mL; antibacterial ability (MIC) ([8]; Control group): 1.56 µg/mL; antibacterial ability (MIC) ([8]; MgCl2 0.5 mM): 3.12 µg/mL; antibacterial ability (MIC) ([8]; MgCl2 1.5 mM): 3.12 µg/mL; antibacterial ability (MIC) ([8]; MgCl2 2.5 mM): 3.12 µg/mL; antibacterial ability (MIC) ([9]; Control group): 1.56 µg/mL; antibacterial ability (MIC) ([9]; MgCl2 0.5 mM): 1.56 µg/mL; antibacterial ability (MIC) ([9]; MgCl2 1.5 mM): 1.56 µg/mL; antibacterial ability (MIC) ([9]; MgCl2 2.5 mM): 1.56 µg/mL; antibacterial ability (MIC) ([10]; Control group): 6.25 µg/mL; antibacterial ability (MIC) ([10]; MgCl2 0.5 mM): 12.5 µg/mL; antibacterial ability (MIC) ([10]; MgCl2 1.5 mM): 12.5 µg/mL; antibacterial ability (MIC) ([10]; MgCl2 2.5 mM): 25 µg/mL; antibacterial ability (MIC) ([11]; Control group): 1.56 µg/mL; antibacterial ability (MIC) ([11]; MgCl2 0.5 mM): 3.12 µg/mL; antibacterial ability (MIC) ([11]; MgCl2 1.5 mM): 3.21 µg/mL; antibacterial ability (MIC) ([11]; MgCl2 2.5 mM): 6.25 µg/mL; antibacterial ability (MIC) ([12]; Control group): 3.12 µg/mL; antibacterial ability (MIC) ([12]; MgCl2 0.5 mM): 6.25 µg/mL; antibacterial ability (MIC) ([12]; MgCl2 1.5 mM): 6.25 µg/mL; antibacterial ability (MIC) ([12]; MgCl2 2.5 mM): 12.5 µg/mL; MIC [13]: 6.25 µg/mL (≈ 3.58 µM); antibacterial ability (MIC) ([14]; NaCl 50 mM): 3.125; antibacterial ability (MIC) ([14]; NaCl 100 mM): 12.5; antibacterial ability (MIC) ([14]; NaCl 200 mM): 25; antibacterial ability (MIC) ([14]; NaCl 300 mM): 50; antibacterial ability (MIC) ([15]; NaCl 50 mM): 1.56; antibacterial ability (MIC) ([15]; NaCl 100 mM): 3.125; antibacterial ability (MIC) ([15]; NaCl 200 mM): 12.5; antibacterial ability (MIC) ([15]; NaCl 300 mM): 50; antibacterial ability (MIC) ([16]; NaCl 50 mM): 1.56; antibacterial ability (MIC) ([16]; NaCl 100 mM): 3.125; antibacterial ability (MIC) ([16]; NaCl 200 mM): 6.25; antibacterial ability (MIC) ([16]; NaCl 300 mM): 25; antibacterial ability (MIC) ([17]; NaCl 50 mM): 12.5; antibacterial ability (MIC) ([17]; NaCl 100 mM): 25; antibacterial ability (MIC) ([17]; NaCl 200 mM): 50; antibacterial ability (MIC) ([17]; NaCl 300 mM): 50; antibacterial ability (MIC) ([18]; NaCl 50 mM): 1.56; antibacterial ability (MIC) ([18]; NaCl 100 mM): 12.5; antibacterial ability (MIC) ([18]; NaCl 200 mM): 50; antibacterial ability (MIC) ([18]; NaCl 300 mM): >50; antibacterial ability (MIC) ([19]; NaCl 50 mM): 6.25; antibacterial ability (MIC) ([19]; NaCl 100 mM): 50; antibacterial ability (MIC) ([19]; NaCl 200 mM): 50; antibacterial ability (MIC) ([19]; NaCl 300 mM): >50; antibacterial ability in different concentration of salt (in words) [20]: better than P-113; also recorded: remains their activity of antibacterial

Which results are given for `C[C@H](N)C(=O)N[C@@H](CCCCN)C(=O)N[C@@H](CCCNC(=N)N)C(=O)N[C@@H](Cc1c[nH]cn1)C(=O)N[C@@H](Cc1c[nH]cn1)C(=O)NCC(=O)N[C@@H](Cc1ccc(O)cc1)C(=O)N[C@@H](CCCCN)C(=O)N[C@@H](CCCNC(=N)N)C(=O)N[C@@H](CCCCN)C(=O)N[C@@H](Cc1ccccc1)C(=O)N[C@@H](Cc1c[nH]cn1)C(N)=O` [P113, AKRHHGYKRKFH-NH2 (SEQ ID NO: 1)] (H-AKRHHGYKRKFH-NH2; N-terminus assumed)?
minimal inhibition concentration (MIC) [1]: >50; minimal inhibition concentration (MIC) [2]: >50; minimal inhibition concentration (MIC) [3]: >50; minimal inhibition concentration (MIC) [4]: >50; minimal inhibition concentration (MIC) [5]: >50; minimal inhibition concentration (MIC) [6]: >50; antibacterial ability (MIC) ([7]; Control group): 12.5 µg/mL; antibacterial ability (MIC) ([7]; MgCl2 0.5 mM): 12.5 µg/mL; antibacterial ability (MIC) ([7]; MgCl2 1.5 mM): 25 µg/mL; antibacterial ability (MIC) ([7]; MgCl2 2.5 mM): 25 µg/mL; antibacterial ability (MIC) ([8]; Control group): 12.5 µg/mL; antibacterial ability (MIC) ([8]; MgCl2 0.5 mM): 50 µg/mL; antibacterial ability (MIC) ([8]; MgCl2 1.5 mM): 50 µg/mL; antibacterial ability (MIC) ([8]; MgCl2 2.5 mM): 50 µg/mL; antibacterial ability (MIC) ([9]; Control group): 12.5 µg/mL; antibacterial ability (MIC) ([9]; MgCl2 0.5 mM): 12.5 µg/mL; antibacterial ability (MIC) ([9]; MgCl2 1.5 mM): 25 µg/mL; antibacterial ability (MIC) ([9]; MgCl2 2.5 mM): 25 µg/mL; antibacterial ability (MIC) ([10]; Control group): 50 µg/mL; antibacterial ability (MIC) ([10]; MgCl2 0.5 mM): > 50 µg/mL; antibacterial ability (MIC) ([10]; MgCl2 1.5 mM): > 50 µg/mL; antibacterial ability (MIC) ([10]; MgCl2 2.5 mM): > 50 µg/mL; antibacterial ability (MIC) ([11]; Control group): 25 µg/mL; antibacterial ability (MIC) ([11]; MgCl2 0.5 mM): 50 µg/mL; antibacterial ability (MIC) ([11]; MgCl2 1.5 mM): 50 µg/mL; antibacterial ability (MIC) ([11]; MgCl2 2.5 mM): 50 µg/mL; antibacterial ability (MIC) ([12]; Control group): 12.5 µg/mL; antibacterial ability (MIC) ([12]; MgCl2 0.5 mM): > 50 µg/mL; antibacterial ability (MIC) ([12]; MgCl2 1.5 mM): > 50 µg/mL; antibacterial ability (MIC) ([12]; MgCl2 2.5 mM): > 50 µg/mL; antibacterial ability (MIC) ([14]; NaCl 50 mM): 50; antibacterial ability (MIC) ([14]; NaCl 100 mM): 50; antibacterial ability (MIC) ([14]; NaCl 200 mM): >50; antibacterial ability (MIC) ([14]; NaCl 300 mM): >50; antibacterial ability (MIC) ([15]; NaCl 50 mM): 50; antibacterial ability (MIC) ([15]; NaCl 100 mM): 50; antibacterial ability (MIC) ([15]; NaCl 200 mM): >50; antibacterial ability (MIC) ([15]; NaCl 300 mM): >50; antibacterial ability (MIC) ([16]; NaCl 50 mM): 50; antibacterial ability (MIC) ([16]; NaCl 100 mM): 50; antibacterial ability (MIC) ([16]; NaCl 200 mM): >50; antibacterial ability (MIC) ([16]; NaCl 300 mM): >50; antibacterial ability (MIC) ([17]; NaCl 50 mM): 50; antibacterial ability (MIC) ([17]; NaCl 100 mM): 50; antibacterial ability (MIC) ([17]; NaCl 200 mM): >50; antibacterial ability (MIC) ([17]; NaCl 300 mM): >50; antibacterial ability (MIC) ([18]; NaCl 50 mM): 50; antibacterial ability (MIC) ([18]; NaCl 100 mM): 50; antibacterial ability (MIC) ([18]; NaCl 200 mM): >50; antibacterial ability (MIC) ([18]; NaCl 300 mM): >50; antibacterial ability (MIC) ([19]; NaCl 50 mM): 50; antibacterial ability (MIC) ([19]; NaCl 100 mM): 50; antibacterial ability (MIC) ([19]; NaCl 200 mM): >50; antibacterial ability (MIC) ([19]; NaCl 300 mM): >50
